Legend:
[1] = target: T1, human TMEM16A (TMEM16Aabc variant) (Homo sapiens, UniProt Q5XXA6, DEL476-501); assay: Automated whole-cell patch clamp (Qpatch) TMEM16A potentiator assay in recombinant FRT cells; format: cell-based; conditions: for activation at 3.33 µM: percentage increase of baseline TMEM16A current, minimum n = 2, read-out: % Potentiation @ 3.33 uM Avg; for EC50: minimum n = 2
T1 sequence (Q5XXA6 with tags, fused parts or gaps isoform Q5XXA6-5 DEL539-564): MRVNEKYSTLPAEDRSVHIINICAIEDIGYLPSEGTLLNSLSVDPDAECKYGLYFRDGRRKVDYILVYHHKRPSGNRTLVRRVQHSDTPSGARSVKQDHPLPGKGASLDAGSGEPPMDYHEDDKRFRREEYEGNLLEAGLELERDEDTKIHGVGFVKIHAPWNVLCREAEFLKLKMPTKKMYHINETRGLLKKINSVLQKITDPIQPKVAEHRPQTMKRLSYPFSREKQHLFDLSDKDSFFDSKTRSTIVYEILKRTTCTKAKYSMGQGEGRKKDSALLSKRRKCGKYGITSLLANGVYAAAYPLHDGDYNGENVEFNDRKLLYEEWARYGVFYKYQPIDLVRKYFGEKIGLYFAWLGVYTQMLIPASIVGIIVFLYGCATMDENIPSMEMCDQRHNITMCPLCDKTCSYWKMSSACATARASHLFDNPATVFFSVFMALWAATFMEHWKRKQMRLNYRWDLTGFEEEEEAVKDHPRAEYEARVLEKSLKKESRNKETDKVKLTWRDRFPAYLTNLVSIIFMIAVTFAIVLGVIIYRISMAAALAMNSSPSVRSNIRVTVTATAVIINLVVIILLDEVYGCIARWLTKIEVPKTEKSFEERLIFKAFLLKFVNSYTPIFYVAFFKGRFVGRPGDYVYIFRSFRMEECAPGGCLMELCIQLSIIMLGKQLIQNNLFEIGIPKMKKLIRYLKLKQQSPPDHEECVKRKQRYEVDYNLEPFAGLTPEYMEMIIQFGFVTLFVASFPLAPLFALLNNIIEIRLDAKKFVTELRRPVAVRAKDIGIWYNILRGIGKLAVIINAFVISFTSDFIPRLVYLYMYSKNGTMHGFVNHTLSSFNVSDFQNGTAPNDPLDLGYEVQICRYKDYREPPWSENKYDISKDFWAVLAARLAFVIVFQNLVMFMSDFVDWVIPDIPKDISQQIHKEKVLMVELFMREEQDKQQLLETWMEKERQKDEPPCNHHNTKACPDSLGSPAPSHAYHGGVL
Experimental: Automated Whole-Cell Patch Clamp Assay to Detect TMEM16A Activity in Recombinant Cells
Fisher rat thyroid (FRT) cells stably expressing human TMEM16A (TMEM16Aabc variant; Dr Luis Galietta, Insituto Giannina, Italy) were cultured in T-75 flasks in Hams F-12 media with Coon's modification (Sigma) supplemented with 10% (v/v) foetal bovine serum, penicillin-streptomycin (10,000 U/mL/10000 μg/mL), G-418 (750 μg/mL), L-glutamine (2 mM) and sodium bicarbonate solution (7.5% v/v). At ˜90% confluence cells were harvested for experiments by detachment with a 2:1 (v/v) mixture of Detachin (BMS Biotechnology) and 0.25% (w/v) trypsin-EDTA.
FRT-TMEM16A cells were whole-cell patch clamped using an automated planar patch clamp system (Qpatch, Sophion). Briefly, once high resistance (GOhm) seals were established between the cells and the planar recording array the patch was ruptured using suction pulses to establish the whole-cell recording configuration of the patch clamp technique. The assay employed the following solutions (all reagents Sigma): Intracellular solution (mM): N-methyl-D-glucamine 130, CaCl2 18.2, MgCl2 1, HEPES 10, EGTA 10, BAPTA 20, Mg-ATP 2, pH 7.25, 325 mOsm with sucrose.
Extracellular solution (mM): N-methyl-D-glucamine 130, CaCl2 2, MgCl2 1, HEPES 10, pH 7.3, 320 mOsm with sucrose.
The intracellular solution buffers intracellular calcium at levels required to give ˜20% activation of the maximal TMEM16A mediated current (E020 for calcium ions). Cells were voltage clamped at a holding potential of −70mV and a combined voltage step (to +70 mV)/ramp (−90 my to +90 mV) was applied at 0.05 Hz. After a period of current stabilisation test compounds, solubilised in 100% (v/v) DMSO and subsequently diluted into extracellular solution, were applied to generate a cumulative concentration response curve. Each concentration of test compound was incubated for 5 minutes before addition of the next concentration. After the final concentration was tested a supramaximal concentration of either a known active positive modulator or the TMEM16A inhibitor, CaCCinhA01 (Del La Fuente et al, 2008) was added to define the upper and lower limits of the assay.
Compound activity was quantified by measuring the increase in current upon compound addition and expressing this as a percentage increase of baseline TMEM16A current level.
Peak TMEM16A current at +70 mV was plotted as a function of time over the assay period. Baseline current (IBL) was measured after a period of stabilisation. The increase in current for each compound addition was determined by taking the peak current during the incubation period and subtracting the current from the previous recording period and then expressing this as a percentage of the baseline current (% potentiation). For test compound concentration 1 in FIG. 1 this is:
For each additional concentration tested the increase in current was determined by subtracting the current from the previous incubation period and normalising the baseline value—for test concentration 2 in FIG. 1 this is:
The values for each test concentration were plotted as a cumulative function of concentration eg. for test concentration two this would be the sum of the peak changes measured during concentration one plus concentration two.

[2] = Log D (pH7.4 shake flask); format: physicochemical; conditions: pH 7.4; 1-octanol/phosphate buffer shake flask; read-out: mLogD (pH 7.4)
Experimental: Phosphate buffer (1 M) was diluted to 20 mM with deionised water and adjusted to pH 7.4 with phosphoric acid or sodium hydroxide. 1-octanol and phosphate buffer (20 mM) were saturated overnight by tumbling. The two phases were separated using a separation funnel. 5 μL of 5 mM compound cassette was added to 495 μL of octanol-saturated buffer and 495 μL buffer saturated octanol in a 96-well plate (top concentration 50 μM). Plate was shaken for 1 h and centrifuged at 25° C. for 5 min. 200 μL of each phase was transferred to a separate plate. The octanol layer was sampled first to avoid cross contamination. 5 μL of the solutions were transferred to 495 μL of quench solution* (max concentration 0.5 μM). In addition, 40 μL of buffer solution was added to 360 μL of quench solvent (max concentration 5 μM). Samples were analysed by LC-MS/MS. Benchmarking against a calibration curve for each compound and with reference to the control compounds sulpride, diclofenac, chlorpromazine and tamoxifen. *Quench solution was a 1:3:1 mixture (v/v/v) of Acetonitrile containing 0.1% formic acid and imipramine/labetalol, 200 nM:Acetonitrile:Water.

activation at 3.33 µM [1]	EC50 [1]	logD [2]	SMILES
202%	0.025 µM	> 4	CC(C)(C)c1cc(F)c(CC(=O)Nc2ccnc(C(=O)NC3(C(F)(F)F)CC3)c2)cc1O [Example 1.7]
356%	0.069 µM	3.7	CC(C)(C)NC(=O)c1cc(NC(=O)Cc2cc(O)c(C3(C#N)CC3)cc2F)ccn1 [Example 2.4, N-tert-Butyl-4-[[2-[4-(1-cyanocyclopropyl)-2-fluoro-5-hydroxy-phenyl]acetyl]amino]pyridine-2-carboxamide]
434%	0.03 µM	4.2	O=C(Cc1cc(O)c(C2(C(F)(F)F)CCO2)cc1F)Nc1ccnc(C(=O)NC2(C(F)(F)F)CC2)c1 (stereo not shown) [Example 2.10, 4-[[2-[2-Fluoro-5-hydroxy-4-[2-(trifluoromethyl)oxetan-2-yl]phenyl]acetyl]amino]-N-[1-(trifluoromethyl)cyclopropyl]pyridine-2-carboxamide]
200%	0.037 µM	> 4.1	CC(C)(C#N)NC(=O)c1cc(NC(=O)Cc2cc(O)c(C(C)(C)C)cc2F)ccn1 [Example 1.4]
190%	0.041 µM		C#CC(C)(C)NC(=O)c1cc(NC(=O)Cc2cc(O)c(C(C)(C)CO)cc2Cl)ccn1 [Example 15.1, 4-[[2-[2-Chloro-5-hydroxy-4-(2-hydroxy-1,1-dimethyl-ethyl)phenyl]acetyl]amino]-N-(1,1-dimethylprop-2-ynyl)pyridine-2-carboxamide]
295%	0.115 µM		CC(C)(C#N)NC(=O)c1cc(NC(=O)Cc2cc(O)c(C(C)(C)CO)cc2F)ccn1 [Example 16.2, N-(1-Cyano-1-methyl-ethyl)-4-[[2-[2-fluoro-5-hydroxy-4-(2-hydroxy-1,1-dimethyl-ethyl)phenyl]acetyl]amino]pyridine-2-carboxamide]
350%	0.466 µM		CC(C)(C#N)NC(=O)c1cc(NC(=O)Cc2cc(O)c(C(C)(C)O)cc2F)ccn1 [Example 2.1, N-(1-Cyano-1-methyl-ethyl)-4-[[2-[2-fluoro-5-hydroxy-4-(1-hydroxy-1-methyl-ethyl)phenyl]acetyl]amino]pyridine-2-carboxamide]

The remaining lines, values behind:

SMILES	activation at 3.33 µM [1]	EC50 [1]	logD [2]
CC(C)(C#N)NC(=O)c1cc(NC(=O)Cc2cc(O)c(C(C)(C)C)cc2Cl)ccn1 [Example 10, 4-[[2-(4-tert-Butyl-2-chloro-5-hydroxy-phenyl)acetyl]amino]-N-(1-cyano-1-methyl-ethyl)pyridine-2-carboxamide]	310%	0.052 µM	> 4
CC1(NC(=O)c2cc(NC(=O)Cc3cc(O)c(C(C)(C)C)cc3F)ccn2)CC1 [Example 1, 4-[[2-(4-tert-Butyl-2-fluoro-5-hydroxy-phenyl)acetyl]amino]-N-(1-methylcyclopropyl)pyridine-2-carboxamide]	248%	0.038 µM	> 4.2
CC(C)(C#N)NC(=O)c1cc(NC(=O)Cc2cc(O)c(C(C)(C)C)cc2F)c(F)cn1 [Example 3, 4-[[2-(4-tert-Butyl-2-fluoro-5-hydroxy-phenyl)acetyl]amino]-N-(1-cyano-1-methyl-ethyl)-5-fluoro-pyridine-2-carboxamide]	353%	0.132 µM	3.9
CC(C)(O)c1cc(Cl)c(CC(=O)Nc2ccnc(C(=O)NC3(C(F)(F)F)CC3)c2)cc1O [Example 19, 4-[[2-[2-Chloro-5-hydroxy-4-(1-hydroxy-1-methyl-ethyl)phenyl]acetyl]amino]-N-[1-(trifluoromethyl)cyclopropyl]pyridine-2-carboxamide]	244%	0.046 µM	
CC(C)(C)NC(=O)c1cc(NC(=O)Cc2cc(O)c(C(C)(C)O)cc2F)ccn1 [Example 7, N-tert-Butyl-4-[[2-[2-fluoro-5-hydroxy-4-(1-hydroxy-1-methyl-ethyl)phenyl]acetyl]amino]pyridine-2-carboxamide]	83.6%	0.068 µM	
